The values that follow come from patent US20250127913A1, “BIFUNCTIONAL FOLATE RECEPTOR BINDING COMPOUNDS” (LYCIA THERAPEUTICS, INC., priority 2021, published 2025).

One assay relates to THP-1 cells. The assay can be described thus: Compound mediated uptake of TNFα-pHrodo in THP-1 cells (flow cytometry). The class given is cell-based. The settings on record: THP-1 cells, 24 hrs. How it is done:
THP-1 cells, a monocytic leukemia cell line that endogenously express folate receptor beta, were used as a model system to measure example compound stimulated uptake of in-house produced TNFα conjugated to the pH sensitive fluorescent dye pHrodo green (ThermoFisher Scientific #P35369).
THP-1 cells were maintained in RPMI (Gibco #61870143) with 10% v/v FBS (VWR #89510-188) with 2 mM L-alanyl-L-glutamine dipeptide, 100 units/ml penicillin and 100 μg/ml streptomycin (Gibco #15140148). Cells were pelleted, resuspended in folate-free RPMI (Gibco #27016021) and seeded at 50,000 cells per well of a 96 well plate. Example compound was added to each well as a log 2 dilution series ranging from 20 μM to 125 nM final concentration. Cells were incubated for 24 hrs and washed/resuspended in phosphate buffered saline (pH 7.4) with 1% w/v BSA. Uptake was measured using a Novocyte Advanteon Flow Cytometer (Agilent Technologies) with the […] and FITC detection configuration.
(Flow cytometry measures light scatter and fluorescence of single cells or particles in a stream.)

In a further assay the target is TNFα (Homo sapiens (Human), UniProt P01375). The assay can be described thus: TNFα binding assay (time-resolved FRET, biotinylated TNFα). To be noted: 1 nM biotinylated TNFα, 80 nM probe, 16 hr incubation; read-out: TNF-HTRF-biotin. How it is done:
TNFα binding was measured in black 96-well plates using a time-resolved FRET assay using a previously described fluorescence acceptor TNFα probe (Xiao et al J. Med. Chem. 2020). Biotinylated TNFα was purchased from Acro Biosystems. Binding reactions were conducted in 20 mM Hepes (pH 7.5) 10 mM MgCl2 0.015% Tween-20 0.05 mg/ml BSA 2% DMSO with 1 nM TNFα 0.5 nM Streptavidin-Tb and 80 nM probe. Test compounds were resuspended in DMSO and 3-fold serial dilutions were made at 100× final concentrations. Fluorescence was measured using λex=340 nm, λem=490, 520 nm on an SpectraMax M5e plate reader (Molecular Devices) after 16 hr incubation time. Dose responses were conducted in duplicate and normalized to the response with DMSO (high) and 100 nM (R)-3-(1-((3-chloro-7-fluoro-6-(2-(2-hydroxypropan-2-yl)pyrimidin-5-yl)-2-methyl-1,5-naphthyridin-4-yl)amino)ethyl)-4-fluorobenzonitrile (low) on each plate. IC50 values were determined by fitting to 4-parameter curves in GraphPad Prism.
Background: In TR-FRET formats the signal depends on donor and acceptor labels being close together.

The target in assay [1] is TNFα and streptavidin immobilized FOL2R (Homo sapiens (Human), UniProt P01375+P14207). The assay can be described thus: Ternary complex SPR assay. Format: binding. The settings on record: 10 nM compound, max response normalized to expected response; for TC 150 nM- tagless TNF Normalized: 150 nM untagged TNF; for TC 300 nM- tagless TNF Normalized: 300 nM untagged TNF; for TC 60 nM taggless TNF normalized: 60 nM untagged TNF. How it is done: Folate receptor-TNFα ternary complex SPR assays were conducted on a Biacore 8K instrument (Cytiva) using biotinylated folate receptor beta (Acro Biosystems). Folate receptor was immobilized at -1800 RU on a streptavidin chip (Cytiva) in 10 mM HEPES pH 7.5, 150 mM NaCl, 0.05% Tween 20. Untagged TNF was preincubated with 10 nM compound for 6 hr in 10 mM HEPES pH 7.5, 150 mM NaCl, 0.05 Tween 20, 2% DMSO at 25° C. Samples were then injected over the folate receptor surface at 30 μl/min with an association time of 110 s and a dissociation time of 600 s. Surfaces were regenerated with 4 M MgCl2 at 30 μl/mm for 30 s. The maximum measured response was normalized by comparison to the maximum expected response for each compound.
Background: In SPR one partner is held on a chip, and binding of the other changes the refractive index at the surface.

Assay [2] addresses T1, folate receptor beta (Homo sapiens (Human), UniProt P14207). The assay can be described thus: Folate receptor binding assay (fluorescence polarization). To be noted: 2.5 nM folate receptor beta, 2 nM FR-Cy probe, 2 hr incubation; read-out: FOLR2-FP. How it is done:
Folate receptor binding was measured in black 96-well plates using a fluorescence polarization assay. A fluorescent probe consisting of a folate analog linked to Cy5 (FR-Cy) was custom synthesized.
Test compounds were resuspended in DMSO and 3-fold serial dilutions were made from 300-0.015 μM (100× final concentrations). Binding reactions were conducted in 200 μl final volume in 20 mM Hepes (pH 7.5) 250 mM NaCl 0.0150 Tween-20 1% DMSO with 2.5 nM folate receptor beta (Acro Biosystems) and 2 nM probe. Fluorescence polarization was measured using λex=620 nm, λem=688 nm on an Envision plate reader (Perkin Elmer) after 2 hr incubation time. Dose responses were conducted in duplicate and normalized to the response with DMSO (high) and 1 μM folic acid (low) on each plate. IC50 values were determined by fitting to 4-parameter curves in GraphPad Prism.

Assay [3] concerns the target T1, folate receptor beta. The assay can be described thus: Folate receptor SPR assay (biotinylated folate receptor beta on streptavidin chip). Format: binding. How it is done:
Folate receptor SPR binding assays were conducted on a Biacore 8K instrument (Cytiva) using biotinylated folate receptor beta (Acro Biosystems). Briefly, folate receptor was immobilized at -550 RU on a streptavidin chip (Cytiva) in 10 mM HEPES pH 7.5, 150 mM NaCl, 0.05% Tween 20. Multi-cycle kinetic studies were conducted with 8 compound concentrations using 2-fold dilutions in 10 mM HEPES pH 7.5, 150 mM NaCl, 0.05% Tween 20, 2% DMSO at 25° C. A flow rate or 75 μl/mmn with an association time of 120 s and a dissociation time of 600 s were used. Surfaces were regenerated with 4 M MgCl2 at 30 μl/min for 30 s. Data were fit to a 1:1 model to determine the reported binding parameters.

T1 sequence (P14207 17-255): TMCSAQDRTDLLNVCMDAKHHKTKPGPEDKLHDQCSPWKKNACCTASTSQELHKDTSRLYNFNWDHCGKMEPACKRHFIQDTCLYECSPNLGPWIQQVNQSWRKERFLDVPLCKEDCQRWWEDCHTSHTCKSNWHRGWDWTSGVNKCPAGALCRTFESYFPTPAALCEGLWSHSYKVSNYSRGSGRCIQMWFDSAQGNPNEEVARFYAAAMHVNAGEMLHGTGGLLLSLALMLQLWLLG
Sequence of TNFα (P01375 77-233): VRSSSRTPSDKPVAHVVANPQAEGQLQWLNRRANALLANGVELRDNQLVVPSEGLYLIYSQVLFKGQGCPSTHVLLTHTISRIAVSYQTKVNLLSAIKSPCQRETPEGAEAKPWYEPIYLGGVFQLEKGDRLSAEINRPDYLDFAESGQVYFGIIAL
Sequence of TNFα and streptavidin immobilized FOL2R (P14207 17-230): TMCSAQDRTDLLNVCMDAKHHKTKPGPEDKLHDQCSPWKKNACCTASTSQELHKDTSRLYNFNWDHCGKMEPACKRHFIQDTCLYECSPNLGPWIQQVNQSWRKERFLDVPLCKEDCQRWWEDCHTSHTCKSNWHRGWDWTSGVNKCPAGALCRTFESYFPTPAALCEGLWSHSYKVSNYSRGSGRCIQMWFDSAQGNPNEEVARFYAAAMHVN
Sequence of TNFα and streptavidin immobilized FOL2R (P01375 77-233): as the sequence (P01375 77-233) above

Regarding `Cc1nc2cc(F)c(-c3cnc(OCCCCCn4cc(COCCOCCOCCOCCNC(=O)[C@H](CCC(=O)O)NC(=O)c5ccc(NCc6cnc7nc(N)nc(O)c7n6)cc5)nn4)nc3)nc2c(N[C@H](C)c2cc(C#N)ccc2F)c1Cl` [Compound 1-21], the “uptake of labelled TNFα (median fluorescence intensity of pHrodo dye)” value in the assay on THP-1 cells is on record as “stimulate uptake of TNFα”.
For the compound `Cc1nc2cc(F)c(-c3cnc(N4CCN(C(=O)COCCn5cc(COCCOCCOCCOCCNC(=O)CC[C@H](NC(=O)c6ccc(NCc7cnc8nc(N)nc(O)c8n7)cc6)C(=O)O)nn5)CC4)nc3)nc2c(N[C@H](C)c2cc(C#N)ccc2F)c1Cl` [Compound I-45, (S)-18-(4-(((2-amino-4-hydroxypteridin-6-yl)methyl)amino)benzamido)-1-(1-(2-(2-(4-(5-(7-chloro-8-(((R)-1-(5-cyano-2-fluorophenyl)ethyl)amino)-3-fluoro-6-methyl-1,5-naphthyridin-2-yl)pyrimidin-2-yl)piperazin-1-yl)-2-oxoethoxy)ethyl)-1H-1,2,3-triazol-4-yl)-15-oxo-2,5,8,11-tetraoxa-14-azanonadecan-19-oic acid], the IC50 on TNFα is 25 nM; on folate receptor beta [2] it was 4.2 nM. Also, in assay [1], the “TC 150 nM- tagless TNF Normalized” value turned out to be 16.3%. The “TC 300 nM- tagless TNF Normalized” value in assay [1] is listed as 17.6%.
For `Cc1nc2cc(F)c(-c3cnc(N4CCN(C(=O)COCCOCCOCCOCCN5CCN(C(=O)CC[C@H](NC(=O)c6ccc(N(C)Cc7cnc8nc(N)[nH]c(=O)c8n7)cc6)C(=O)O)CC5)CC4)nc3)nc2c(N[C@H](C)c2cc(C#N)ccc2F)c1Cl` [Compound I-78, (S)-2-(4-(((2-amino-4-oxo-3,4-dihydropteridin-6-yl)methyl)(methyl)amino)benzamido)-5-(4-(14-(4-(5-(7-chloro-8-(((R)-1-(5-cyano-2-fluorophenyl)ethyl)amino)-3-fluoro-6-methyl-1,5-naphthyridin-2-yl)pyrimidin-2-yl)piperazin-1-yl)-14-oxo-3,6,9,12-tetraoxatetradecyl)piperazin-1-yl)-5-oxopentanoic acid], the IC50 is 13 nM on TNFα and 9.2 nM at folate receptor beta [2].
Taken in the same sequence, the figures for `Cc1nc2cc(F)c(-c3cnc(N4CCN(C(=O)COCCOCCOCCOCCOCCOCCn5cc(CC[C@H](NC(=O)c6ccc(SCc7ccc8nc(N)nc(O)c8c7)cc6)C(=O)O)nn5)CC4)nc3)nc2c(N[C@H](C)c2cc(C#N)ccc2F)c1Cl` [Compound I-79, (S)-2-(4-(((2-amino-4-hydroxyquinazolin-6-yl)methyl)thio)benzamido)-4-(1-(20-(4-(5-(7-chloro-8-(((R)-1-(5-cyano-2-fluorophenyl)ethyl)amino)-3-fluoro-6-methyl-1,5-naphthyridin-2-yl)pyrimidin-2-yl)piperazin-1-yl)-20-oxo-3,6,9,12,15,18-hexaoxaicosyl)-1H-1,2,3-triazol-4-yl)butanoic acid] were 17 nM and 3.2 nM.
Take `Cc1nc2cc(F)c(-c3cnc(N4CC5(CN(C(=O)COCCOCCOCCOCCOCCOCCn6cc(CC[C@H](NC(=O)c7ccc(NCc8cnc9nc(N)nc(O)c9n8)cc7)C(=O)O)nn6)C5)C4)nc3)nc2c(N[C@H](C)c2cc(C#N)ccc2F)c1Cl` [Compound I-81, (S)-2-(4-(((2-amino-4-hydroxypteridin-6-yl)methyl)amino)benzamido)-4-(1-(20-(6-(5-(7-chloro-8-(((R)-1-(5-cyano-2-fluorophenyl)ethyl)amino)-3-fluoro-6-methyl-1,5-naphthyridin-2-yl)pyrimidin-2-yl)-2,6-diazaspiro[3.3]heptan-2-yl)-20-oxo-3,6,9,12,15,18-hexaoxaicosyl)-1H-1,2,3-triazol-4-yl)butanoic acid]: the IC50 worked out at 39 nM at TNFα and 7.1 nM on folate receptor beta [2]. Besides, in assay [1], the “TC 60 nM taggless TNF normalized” value was determined as 4%. The “TC 300 nM- tagless TNF Normalized” value in assay [1] is recorded as 12.1%.
`CN(Cc1cnc2nc(N)[nH]c(=O)c2n1)c1ccc(C(=O)N[C@@H](CCc2cn(CCOCCOCCOCCOCCOCCOCC(=O)N3CCN(c4ncc(-c5ccc6nc(COc7cccc(N8CCCC8=O)c7)n(Cc7ccccc7OC(F)F)c6c5)cn4)CC3)nn2)C(=O)O)cc1` [Compound I-83, (S)-2-(4-(((2-amino-4-oxo-3,4-dihydropteridin-6-yl)methyl)(methyl)amino)benzamido)-4-(1-(20-(4-(5-(1-(2-(difluoromethoxy)benzyl)-2-((3-(2-oxopyrrolidin-1-yl)phenoxy)methyl)-1H-benzo[d]imidazol-6-yl)pyrimidin-2-yl)piperazin-1-yl)-20-oxo-3,6,9,12,15,18-hexaoxaicosyl)-1H-1,2,3-triazol-4-yl)butanoic acid]: the values for the IC50 at TNFα and on folate receptor beta [2] were 28 nM and 5.3 nM, respectively. The “TC 60 nM taggless TNF normalized” value in assay [1] came to 14.3%. Besides, the “TC 300 nM- tagless TNF Normalized” value in assay [1] turned out to be 17.5%.
In the case of `C[C@@H]1CN(c2ncc(-c3ccc4c(c3)N(Cc3ccccc3OC(F)F)C(C)(C)C4=O)cn2)CCN1C(=O)COCCOCCOCCOCCOCCOCCn1cc(CC[C@H](NC(=O)c2ccc(NCc3cnc4nc(N)nc(O)c4n3)cc2)C(=O)O)nn1` [Compound I-88, (S)-2-(4-(((2-amino-4-hydroxypteridin-6-yl)methyl)amino)benzamido)-4-(1-(20-((R)-4-(5-(1-(2-(difluoromethoxy)benzyl)-2,2-dimethyl-3-oxoindolin-6-yl)pyrimidin-2-yl)-2-methylpiperazin-1-yl)-20-oxo-3,6,9,12,15,18-hexaoxaicosyl)-1H-1,2,3-triazol-4-yl)butanoic acid], the IC50 was found to be 60 nM at TNFα and 6.9 nM on folate receptor beta [2].
`Cc1nc2cc(F)c(-c3cnc(N4CCN(C(=O)COCCn5cc(COCCOCCOCCN6CCN(C(=O)[C@H](CCC(=O)O)NC(=O)c7ccc(NCc8cnc9nc(N)nc(O)c9n8)cc7)CC6)nn5)CC4)nc3)nc2c(N[C@H](C)c2cc(C#N)ccc2F)c1Cl` [Compound I-97] returned an Rmax at folate receptor beta [3] (biotinylated folate receptor beta on streptavidin chip) of 17.1 RU. This compound yielded a kd on folate receptor beta [3] (multi-cycle kinetics, 25° C., 1:1 model) of 0.000798 s⁻¹. For the same compound, at folate receptor beta [3] (multi-cycle kinetics, 25° C., 1:1 model, read-out: FOLR2Biotin - SPR Kd), the Kd came to 0.0914 nM. Besides, the kon on folate receptor beta [3] (pH 7.5, multi-cycle kinetics, 25° C., 1:1 model, read-out: ka) is 8.74e+06 M⁻¹ s⁻¹. In addition, in assay [1], the “TC 150 nM- tagless TNF Normalized” value stood at 18.4% and the “TC 300 nM- tagless TNF Normalized” value was 21.1%. Also, at folate receptor beta [2], the IC50 is 17 nM.

As usually defined, the Kd is the free concentration of one partner at which half of the binding sites on the other are occupied at equilibrium, for simple one-to-one binding.
